Columns and labels:
[1] = clinical; settings: human, in vivo; for half-life: Daptomycin t1/2 (elimination half-life), IV, 0.693/kel, median (IQR)
Experimental: Tubes were centrifuged at 10,400 rpm for at least 10 min at room temperature; separated plasma was then dispensed into polypropylene-labelled tubes and stored at −80°C until the bioanalysis was carried out. […] QcH (80 µg/mL), QcM (40 µg/mL) and QcL (4 µg/mL), by serial dilution in plasma. […] Just before the analysis, patient plasma samples were thawed, and calibrators and quality controls were prepared fresh in the same matrix. Each sample was processed by protein precipitation: 50 µL of plasma was prepared in pre-labelled Eppendorf tubes®. […] In total, 200 µL of the supernatant was transferred to HPLC vials, and 5 µL was injected into the chromatographic column. The HPLC system used was a Thermo Scientific quaternary pump® (Accela pump; Thermo Fisher Scientific, San Francisco, CA, USA) interfaced with an autosampler (Accela autosampler). […] From 3.10 to 4.50 min, the column was again equilibrated to the initial conditions. […] Xcalibur 2.07 and Lcquan2.5.6 software from Thermo Scientific (San Jose, CA, USA) were utilized for the LC-MS/MS system control, data acquisition and data analysis. Calibration curves were generated using weighted (1/x^2) linear regression curves.

[2] = tested on: Staphylococcus spp. infective endocarditis; assay: Microbiological and clinical response of Staphylococcus spp. infective endocarditis; format: in vivo, human; settings: all patients, both dose groups
Experimental: The monocentric, prospective, cohort study was approved by the local ethics committee. […] All participants signed an informed consent form before the initiation of treatment and data/biological samples collection. […] Due to the COVID-19 pandemic, we could not completely fulfil the study design, and patients were treated with either 8–10 mg/kg (group A) or 11–12 mg/kg (group B), as per routine clinical treatment. In six patients, PK data relative to both doses are available, as per the initial protocol. […] Microbiological failure was defined by persistent or breakthrough infection during IE treatment.

[3] = Experimental: The monocentric, prospective, cohort study was approved by the local ethics committee. […] All participants signed an informed consent form before the initiation of treatment and data/biological samples collection. […] Due to the COVID-19 pandemic, we could not completely fulfil the study design, and patients were treated with either 8–10 mg/kg (group A) or 11–12 mg/kg (group B), as per routine clinical treatment. […] Microbiological failure was defined by persistent or breakthrough infection during IE treatment.
The occurrence of CK elevation above the normal value (>170 mU/mL) and eosinophilic pneumonia was evaluated.

[4] = tested on: Staphylococcus spp.
[5] = multilevel linear mixed model
Excerpt: In any complex structure, we can identify atomic units (in this case curves) and higher level unit (in this case patients). Treating patients as a random effect will correct standard errors and furnish an estimate of between-group variance. Introducing some covariate in a fixed part of the models helps to explain and so reduce unexplained between-group variance. Results are expressed as beta coefficient with their 95% confidence interval (95% CI) and presented with term-specific p values; the beta coefficient represents the mean variation of outcomes for unit change of quantitative predictors or between levels of categorical or ordinal predictors.
AUC0–24 determined on the fifth day of treatment, when the steady-state conditions were achieved, were calculated and compared between the two different groups of patients.

[6] = cited from earlier work

For `CCCCCCCCCC(=O)N[C@@H](Cc1c[nH]c2ccccc12)C(=O)N[C@H](CC(N)=O)C(=O)N[C@@H](CC(=O)O)C(=O)N[C@@H]1C(=O)NCC(=O)N[C@@H](CCCN)C(=O)N[C@@H](CC(=O)O)C(=O)N[C@H](C)C(=O)N[C@@H](CC(=O)O)C(=O)NCC(=O)N[C@H](CO)C(=O)N[C@@H]([C@H](C)CC(=O)O)C(=O)N[C@@H](CC(=O)c2ccccc2N)C(=O)O[C@@H]1C` [Daptomycin, daptomycin], the “Dose linearity of pharmacokinetics” value [1] was “linear daptomycin pharmacokinetics”, the clearance ([1]; iv, Daptomycin CL) was 8.17 mL/min and the half-life ([1]; iv, group A 8–10 mg/kg daily, 15 patients) was 16.9 h. For the same compound, the half-life ([1]; iv, group B 11–12 mg/kg daily, 14 patients) was 15.1 h, the “Breakthrough infections while on treatment” value [2] was “without evidence of breakthrough infections” and the Microbiologic response [2] was “All patients displayed a microbiologic response”. For the same compound, the “Survival at 30 days” value [2] was “All patients were alive”, the “Eosinophilic pneumonia during treatment” value ([3]; 8–12 mg/kg daily) was “none of the patients” and the “CK increase during treatment” value ([3]; in vivo) was “none of the patients”. For the same compound, the MIC [4] was under 0.5 µg/mL, the “Effect of gender on AUC0–24” value [5] was “gender did not affect the results” and the “Beta coefficient, association of AUC0–24 with dose group” value ([5]; 95% CI 64–483, p = 0.010) was 274. The “Increase of systemic exposure in elderly individuals (>75 years) compared with younger (18–30 years)” value [6] was 58%.

— PMC11713942 (Therapeutic Advances in Infectious Disease, 2025)
